The results in this text go back to patent US20240374598A1, “INHIBITORS OF HUMAN IMMUNODEFICIENCY VIRUS REPLICATION” (ViiV HEALTHCARE UK (NO.5) LIMITED, priority 2018, published 2024).

The structures appear in SMILES notation.

Series [1] concerns recombinant NL4-3 virus (nef section replaced with Renilla luciferase gene) in MT-2 cells. As to the kind of experiment: HIV cell culture assay (antiviral activity, luciferase readout). The settings on record: NL43, MT-2 cells infected for 4-5 days with recombinant NL4-3 Renilla luciferase virus. Format: cell-based. As for the experimental part:
HIV cell culture assay—MT-2 cells, 293T cells and the proviral DNA clone of NL4-3 virus were obtained from the NIH AIDS Research and Reference Reagent Program. MT-2 cells were propagated in RPMI 1640 media supplemented with 10% heat inactivated fetal bovine serum (FBS), […]. The 293T cells were propagated in DMEM media supplemented with 10% heat inactivated FBS, […]. A recombinant NL4-3 proviral clone, in which a section of the nef gene was replaced with the Renilla luciferase gene, was used to make the reference virus used in these studies. The recombinant virus was prepared through transfection of the recombinant NL4-3 proviral clone into 293T cells using Transit-293 Transfection Reagent from Mirus Bio LLC (Madison, WI). Supernatent was harvested after 2-3 days and the amount of virus present was titered in MT-2 cells using luciferase enzyme activity as a marker by measuring luciferase enzyme activity. Luciferase was quantitated using the EnduRen Live Cell Substrate from Promega (Madison, WI). Antiviral activities of compounds toward the recombinant virus were quantified by measuring luciferase activity in MT-2 cells infected for 4-5 days with the recombinant virus in the presence of serial dilutions of the compound.
The 50% effective concentration (EC50) was calculated by using the exponential form of the median effect equation where (Fa)=1/[1+(ED50/drug conc.)m] (Johnson VA, Byington RT. Infectivity Assay. In Techniques in HIV Research. ed. Aldovini A, Walker BD. 71-76. New York: Stockton Press. 1990). The 50% inhibitory concentration (EC50) was calculated by using the exponential form of the median effect equation where percent inhibition=1/[1+(EC50/drug concentration)m], where m is a parameter that reflects the slope of the concentration-response curve.

Series [2] is described as follows: Compound cytotoxicity, XTT-based colorimetric assay. Format: cell-based. To be noted: human; uninfected MT2 cells, day 4, XTT assay. Here is the method: Compound cytotoxicity and the corresponding CC50 values were determined using the same protocol as described in the antiviral assay except that uninfected cells were used. Cytotoxicity was assessed on day 4 in uninfected MT2 cells by using a XTT (2,3-bis[2-Methoxy-4-nitro-5-sulfophenyl]-2H-tetrazolium-5-carboxyanilide inner salt)-based colorimetric assay (Sigma-Aldrich, St Louis, Mo).
For orientation: Tetrazolium assays rely on reduction of a dye to a coloured formazan, in cell work by metabolically active cells.

Broadly, the EC50 is the concentration at which the effect is half-maximal. For orientation: CC50 means the concentration giving 50% cytotoxicity. A high value points to better tolerance by the cells.

For `CC(C)Cc1ccc2c(=O)n(-c3ccc(Cl)c4c(NS(C)(=O)=O)nn(C)c34)c([C@H](Cc3cc(F)cc(F)c3)NC(=O)Cn3nc(C(F)F)c4c3C(F)(F)[C@@H]3C[C@H]43)nc2c1` [Example 25, N—((S)-1-(3-(4-chloro-1-methyl-3-(methylsulfonamido)-1H-indazol-7-yl)-7-isobutyl-4-oxo-3,4-dihydroquinazolin-2-yl)-2-(3,5-difluorophenyl)ethyl)-2-((3bS,4aR)-3-(difluoromethyl)-5,5-difluoro-3b,4,4a,5-tetrahydro-1H-cyclopropa[3,4]cyclopenta[1,2-c]pyrazol-1-yl)acetamide], the concentration for a half-maximal effect (EC50) in series [1] is 0.167 nM. Besides, in series [2], the 50% cytotoxic concentration (CC50) at 4 day is above 1000 nM.

As to `Cn1nc(NS(C)(=O)=O)c2cccc(-n3c([C@H](Cc4cc(F)cc(F)c4)NC(=O)Cn4nc(C(F)F)c5c4C(F)(F)[C@@H]4C[C@H]54)nc4cc(C5CCCC5)ccc4c3=O)c21` [Example 33, N—((S)-1-(7-cyclopentyl-3-(1-methyl-3-(methylsulfonamido)-1H-indazol-7-yl)-4-oxo-3,4-dihydroquinazolin-2-yl)-2-(3,5-difluorophenyl)ethyl)-2-((3bS,4aR)-3-(difluoromethyl)-5,5-difluoro-3b,4,4a,5-tetrahydro-1H-cyclopropa[3,4]cyclopenta[1,2-c]pyrazol-1-yl)acetamide], in series [1], the 50% effective concentration (EC50) amounted to 1.26 nM. Further, the CC50 at 4 day in series [2] was above 1000 nM.

Turning to `CCC(F)(F)c1ccc2c(=O)n(-c3ccc(Cl)c4c(NS(C)(=O)=O)nn(C)c34)c([C@H](Cc3cc(F)cc(F)c3)NC(=O)Cn3nc(C(F)F)c4c3C(F)(F)[C@@H]3C[C@H]43)nc2c1` [Example 20, N—((S)-1-(3-(4-chloro-1-methyl-3-(methylsulfonamido)-1H-indazol-7-yl)-7-(1,1-difluoropropyl)-4-oxo-3,4-dihydroquinazolin-2-yl)-2-(3,5-difluorophenyl)ethyl)-2-((3bS,4aR)-3-(difluoromethyl)-5,5-difluoro-3b,4,4a,5-tetrahydro-1H-cyclopropa[3,4]cyclopenta[1,2-c]pyrazol-1-yl)acetamide], the EC50 in series [1] was found to be 0.122 nM. In addition, the CC50 at 4 day in series [2] is above 1000 nM.

For the compound `COc1nc2nc([C@H](Cc3cc(F)cc(F)c3)NC(=O)Cn3nc(C(F)F)c4c3C(F)(F)C3CC43)n(-c3ccc(Cl)c4c(NS(C)(=O)=O)nn(C)c34)c(=O)c2cc1Cl` (stereo in doubt) [Example 37, N—((S)-1-(6-chloro-3-(4-chloro-1-methyl-3-(methylsulfonamido)-1H-indazol-7-yl)-7-methoxy-4-oxo-3,4-dihydropyrido[2,3-d]pyrimidin-2-yl)-2-(3,5-difluorophenyl)ethyl)-2-((3bS,4aR)-3-(difluoromethyl)-5,5-difluoro-3b,4,4a,5-tetrahydro-1H-cyclopropa[3,4]cyclopenta[1,2-c]pyrazol-1-yl)acetamide], the EC50 in series [1] was found to be 0.044 nM. Moreover, the CC50 at 4 day in series [2] is above 1000 nM.

For `Cn1nc(NS(C)(=O)=O)c2c(Cl)ccc(-n3c([C@H](Cc4cc(F)cc(F)c4)NC(=O)Cn4nc(C(F)F)c5c4C(F)(F)[C@@H]4C[C@H]54)nc4cc(C5CCCCC5)ccc4c3=O)c21` [Example 34, N—((S)-1-(3-(4-chloro-1-methyl-3-(methylsulfonamido)-H-indazol-7-yl)-7-cyclohexyl-4-oxo-3,4-dihydroquinazoin-2-yl)-2-(3,5-difluorophenyl)ethyl)-2-((3bS,4aR)-3-(difluoromethyl)-5,5-difluoro-3b,4,4a,5-tetrahydro-1H-cyclopropa[3,4]cyclopenta[1,2-c]pyrazol-1-yl)acetamide], the EC50 in series [1] amounted to 0.597 nM. The CC50 at 4 day in series [2] is above 1000 nM.

Turning to `Cn1nc(NS(C)(=O)=O)c2c(CCC(F)(F)F)ccc(-n3c([C@H](Cc4cc(F)cc(F)c4)NC(=O)Cn4nc(C(F)F)c5c4C(F)(F)[C@@H]4C[C@H]54)nc4cc(CCC(F)(F)F)ccc4c3=O)c21` [Example 22, 2-((3bS,4aR)-3-(difluoromethyl)-5,5-difluoro-3b,4,4a,5-tetrahydro-1H-cyclopropa[3,4]cyclopenta[1,2-c]pyrazol-1-yl)-N—((S)-2-(3,5-difluorophenyl)-1-(3-(1-methyl-3-(methylsulfonamido)-4-(3,3,3-trifluoropropyl)-1H-indazol-7-yl)-4-oxo-7-(3,3,3-trifluoropropyl)-3,4-dihydroquinazolin-2-yl)ethyl)acetamide], the EC50 in series [1] came out at 0.573 nM. In series [2], this compound returned a CC50 at 4 day above 1000 nM.

For the compound `COc1cnc2c(=O)n(-c3ccc(Cl)c4c(NS(C)(=O)=O)nn(C)c34)c([C@H](Cc3cc(F)cc(F)c3)NC(=O)Cn3nc(C(F)F)c4c3C(F)(F)C3CC43)nc2c1` (stereo in doubt) [Example 39, N—((S)-1-(3-(4-chloro-1-methyl-3-(methylsulfonamido)-1H-indazol-7-yl)-7-methoxy-4-oxo-3,4-dihydropyrido[3,2-d]pyrimidin-2-yl)-2-(3,5-difluorophenyl)ethyl)-2-((3bS,4aR)-3-(difluoromethyl)-5,5-difluoro-3b,4,4a,5-tetrahydro-1H-cyclopropa[3,4]cyclopenta[1,2-c]pyrazol-1-yl)acetamide], in series [1], the concentration giving a half-maximal response (EC50) was found to be 0.016 nM. This compound came in with a CC50 at 4 day in series [2] above 1000 nM.

For the compound `COc1ccc2c(=O)n(-c3ccc(Cl)c4c(NS(C)(=O)=O)nn(C)c34)c([C@H](Cc3cc(F)cc(F)c3)NC(=O)Cn3ccc(C(C)C)n3)nc2c1` [Example 5, (S)—N-(1-(3-(4-chloro-1-methyl-3-(methylsulfonamido)-1H-indazol-7-yl)-7-methoxy-4-oxo-3,4-dihydroquinazolin-2-yl)-2-(3,5-difluorophenyl)ethyl)-2-(3-isopropyl-1H-pyrazol-1-yl)acetamide], in series [1], the EC50 is 0.758 nM. The compound also displayed a half-maximal cytotoxic concentration (CC50) at 4 day in series [2] above 1000 nM.

As for `Cn1nc(NS(C)(=O)=O)c2c(Cl)ccc(-n3c([C@H](Cc4cc(F)cc(F)c4)NC(=O)Cn4nc(C(F)(F)F)c5c4C(F)(F)[C@@H]4C[C@H]54)nc4cc(C(C)(C)C)ccc4c3=O)c21` [Example 26, N—((S)-1-(7-(tert-butyl)-3-(4-chloro-1-methyl-3-(methylsulfonamido)-1H-indazol-7-yl)-4-oxo-3,4-dihydroquinazolin-2-yl)-2-(3,5-difluorophenyl)ethyl)-2-((3bS,4aR)-5,5-difluoro-3-(trifluoromethyl)-3b,4,4a,5-tetrahydro-1H-cyclopropa[3,4]cyclopenta[1,2-c]pyrazol-1-yl)acetamide], the EC50 in series [1] came to 0.443 nM. The same compound showed a CC50 at 4 day in series [2] above 1000 nM.

As for `Cn1nc(NS(C)(=O)=O)c2c(Cl)ccc(-n3c([C@H](Cc4cc(F)cc(F)c4)NC(=O)Cn4nc(C(F)F)c5c4C(F)(F)[C@@H]4C[C@H]54)nc4cc(CCC(F)(F)F)ccc4c3=O)c21` [Example 21, N—((S)-1-(3-(4-chloro-1-methyl-3-(methylsulfonamido)-1H-indazol-7-yl)-4-oxo-7-(3,3,3-trifluoropropyl)-3,4-dihydroquinazolin-2-yl)-2-(3,5-difluorophenyl)ethyl)-2-((3bS,4aR)-3-(difluoromethyl)-5,5-difluoro-3b,4,4a,5-tetrahydro-1H-cyclopropa[3,4]cyclopenta[1,2-c]pyrazol-1-yl)acetamide], the EC50 in series [1] turned out to be 0.122 nM. The cytotoxic concentration (CC50) at 4 day in series [2] is above 1000 nM.

Take `CS(=O)(=O)Nc1nn(CC(F)F)c2c(-n3c([C@H](Cc4cc(F)cc(F)c4)NC(=O)Cn4nc(C(F)F)c5c4C(F)(F)[C@@H]4C[C@H]54)nc4cc(C5CC5)ccc4c3=O)ccc(Cl)c12` [Example 30, N—((S)-1-(3-(4-chloro-1-(2,2-difluoroethyl)-3-(methylsulfonamido)-1H-indazol-7-yl)-7-cyclopropyl-4-oxo-3,4-dihydroquinazolin-2-yl)-2-(3,5-difluorophenyl)ethyl)-2-((3bS,4aR)-3-(difluoromethyl)-5,5-difluoro-3b,4,4a,5-tetrahydro-1H-cyclopropa[3,4]cyclopenta[1,2-c]pyrazol-1-yl)acetamide]: the EC50 in series [1] came out at 0.097 nM. This compound also registered a CC50 at 4 day in series [2] above 1000 nM.

In series [2], `CC(C)(C)c1ccc2c(=O)n(-c3ccc(Cl)c4c(NS(C)(=O)=O)nn(CC(F)(F)F)c34)c([C@H](Cc3cc(F)cc(F)c3)NC(=O)Cn3nc(C(F)F)c4c3C(F)(F)[C@@H]3C[C@H]43)nc2c1` [Example 28, N—((S)-1-(7-(tert-butyl)-3-(4-chloro-3-(methylsulfonamido)-1-(2,2,2-trifluoroethyl)-1H-indazol-7-yl)-4-oxo-3,4-dihydroquinazolin-2-yl)-2-(3,5-difluorophenyl)ethyl)-2-((3bS,4aR)-3-(difluoromethyl)-5,5-difluoro-3b,4,4a,5-tetrahydro-1H-cyclopropa[3,4]cyclopenta[1,2-c]pyrazol-1-yl)acetamide] showed a cytotoxic concentration (CC50) at 4 day above 1000 nM.
